Experimental data published in ChEMBL document CHEMBL1201862, “PubChem BioAssay data set” (2004).
Active and inactive are the calls of the source.

Experiments:
[1] = target: T1, NAD-dependent protein deacylase sirtuin-5, mitochondrial (Homo sapiens, UniProt Q9NXA8); experiment: sirtuin-5 deacylation blockers, concentration series – biochemical, fluorescence imaging, cherry-pick, set 5, dose response (AID 720591);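 note: desuccinylation of succinyl peptide AMC substrate read as fluorescence after trypsin release; potency of inhibitors that lower fluorescence and may act on trypsin instead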
[2] = MITF Measured in Cell-Based System Using Plate Reader - 2084-01_Inhibitor_Dose_DryPowder_Activity_Set7.; format: functional
[3] = MITF Orthogonal Assay: MALME3 CTG Assay Measured in Cell-Based System Using Plate Reader - 2084-04_Inhibitor_Dose_DryPowder_Activity_Set6.; format: functional; conditions: MALME-3
[4] = growth inhibition of MALME3 cells – cell-based, CellTiter-Glo luminescence, dry powder, set 5, orthogonal assay for MITF inhibitor project, dose response (AID 651584); format: functional; conditions: MALME-3
[5] = MITF Measured in Cell-Based System Using Plate Reader - 2084-01_Inhibitor_Dose_DryPowder_Activity_Set6.; format: functional
[6] = cytotoxicity in melanoma parental cells – cell-based, CellTiter-Glo, dry powder, set 6, MITF inhibitor project, dose response (AID 624429); format: functional; conditions: SK-MEL-5
[7] = inhibitors of TRPM1-promoter reporter in SK-MEL-5 – cell-based, luciferase, dry powder, set 9, MITF inhibitor project, dose response (AID 651588); format: functional
[8] = growth inhibition of SK-MEL-5 melanoma cells – cell-based, CellTiter-Glo luminescence, dry powder, set 8, orthogonal assay for MITF inhibitor project, dose response (AID 651586); format: functional
[9] = MITF Orthogonal Assay: SK-MEL-5 CTG Assay Measured in Cell-Based System Using Plate Reader - 2084-02_Inhibitor_Dose_DryPowder_Activity_Set5.; format: functional
[10] = cytotoxicity in MITF-independent A375 cells – cell-based, CellTiter-Glo luminescence, dry powder, set 4, counter-screen for MITF inhibitor project, dose response (AID 624364); format: functional; conditions: A-375;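 note: A375 melanoma cells are MITF independent so this is a counter screen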
[11] = melanocyte viability loss, MITF-dependent cells, cell-based, plate reader, dry powder, cytotoxicity control, dose response (AID 651920); format: functional
[12] = viability loss in MITF-independent A375 cells – cell-based, CellTiter-Glo luminescence, dry powder, set 6, counter-screen for MITF inhibitor project, dose response (AID 624488); format: functional; conditions: A-375
[13] = anti-trypanosomal activity in BESM host cells – imaging, CA-I/72 strain, bovine embryo skeletal muscle, dry powder, dose response (AID 651885); format: functional, cell-based
[14] = T. cruzi growth inhibition in host cells, dose response, cell-based, plate reader, dry powder, set 2 (AID 652275); format: functional
[15] = Trypanosoma cruzi replication inhibitors in host cells – cell-based, plate reader, dry powder samples, dose response (AID 651845); format: functional
[16] = inhibitors of non-replicating M. tuberculosis, dose response, luciferase, dry powder (AID 651620); format: functional; conditions: Mycobacterium tuberculosis
[17] = inhibitors of non-replicating M. tuberculosis, dose response, luciferase, dry powder (AID 651619); format: functional; conditions: Mycobacterium tuberculosis
[18] = target: T1, NAD-dependent protein deacylase sirtuin-5, mitochondrial; experiment: blockers of sirtuin-5 peptide desuccinylation – biochemical, fluorescence imaging, cherry-pick, set 6, dose response (AID 720597)
[19] = viability reduction in hepatoma cells – cell-based, ATP luminescence, dry powder, Set4, cytotoxicity control, dose response (AID 743143); format: functional; conditions: HepG2

T1 sequence (Q9NXA8 whole entry): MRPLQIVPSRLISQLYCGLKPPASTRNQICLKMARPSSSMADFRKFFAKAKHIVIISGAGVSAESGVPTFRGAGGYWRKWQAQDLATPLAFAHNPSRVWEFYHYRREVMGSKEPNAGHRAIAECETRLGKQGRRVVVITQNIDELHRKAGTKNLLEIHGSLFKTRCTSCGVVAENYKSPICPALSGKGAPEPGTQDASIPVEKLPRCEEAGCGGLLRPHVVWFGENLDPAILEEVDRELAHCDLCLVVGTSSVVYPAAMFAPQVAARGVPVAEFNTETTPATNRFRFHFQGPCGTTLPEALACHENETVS

Cc1ccc(C(=O)COC(=O)CN2C(=O)C3C4CC(C(Br)C4Br)C3C2=O)cc1 (centres undefined)
AC50 [1]: > 30 µM (inactive)

O=C1C(Nc2ccccc2)=C(c2ccccc2)C(=O)c2ccccc21
AC50 [2]: 8.71 µM (active) | AC50 [3]: 68.9 µM (active) | AC50 [4]: 68.9 µM (active) | AC50 [5]: 10.2 µM (active) | AC50 [6]: 35 µM (active) | AC50 [7]: 28.8 µM (active) | AC50 [8]: 29.3 µM (active) | AC50 [9]: 27.6 µM (active) | AC50 [10]: > 70 µM (inactive) | AC50 [11]: > 70 µM (inactive) | AC50 [12]: > 70 µM (inactive)

CC(C)N1C[C@H](C)[C@@H](CN(C)Cc2cccc(Cl)c2)Oc2c(NC(=O)c3ccncc3)cccc2C1=O
IC50 [13]: 0.00102 µM (active) | AC50 [14]: 0.00208 µM (active) | AC50 [15]: 0.00208 µM (active)

c1ccc(-c2nnc(SC3CCCCC3)o2)cc1
IC90 [16]: 2 µM (active) | IC90 [17]: 2 µM (active)

COc1ccc(NC(=O)N2C[C@H](O)COC[C@@H]3O[C@@H](CC(=O)N4CCCCC4)CC[C@H]32)cc1
AC50 [18]: 26.1 µM (active)

O=C(CCCNC(=O)c1ccc(Cl)c(Cl)c1)N[C@@H]1CCCc2ccccc21
AC50 [19]: > 52 µM (inactive)
